US11235000B2, “Calcium peroxides nanoparticles as adjuvant therapy” (UNIVERSITY OF ULSTER, priority 2017, dated 2022)

Assays:
[1] = test system: human BxPC-3 pancreatic cancer cells; assay: In vitro PDT of hypoxic cells, MTT cell viability; type: cell-based; conditions: PDT treatment alone (RB 1 μM + 532 nm LED 30 sec)
Protocol: Having determined the ability of the CaO2 NPs to improve the light induced ROS generation of Rose Bengal in a simulated hypoxic environment, the next step was to determine if this improved ROS generation would also result in increased Rose Bengal mediated PDT killing of human BxPC-3 pancreatic cancer cells.
BxPc3 cells were seeded in a 96 well plate at a density of 5×10^4 cells per well. The cells were cultured in an anaerobic cabinet (O2/CO2/N2, 0.1:5:94.9 v/v/v) for 3 hours to generate a hypoxic environment and then spiked with RB (1 μM) and incubated for a further 3 hours under anaerobic conditions. This concentration of RB is much lower than normally used in PDT cell-based studies (˜5 μM) and was chosen to enable a moderate PDT effect in the absence of CaO2 NPs so that any beneficial effect provided by the NPs could be determined (Chan et al., Tissue engineering, 13(1): 73-85, 2007). The cells were then incubated with an ethanol: PBS (50:50) solution of the NPs (50 μM) for 5 min before being exposed to light from a 532 nm emitting LED for 30 sec. The NP solution was then removed, the cells washed with fresh PBS and incubated in fresh media under normoxic conditions for a further 21 hours before cell viability was determined using a MTT assay. […]

[2] = test system: Mia-PaCa 2 xenograft tumours; assay: PDT efficacy in vivo, tumour volume; set-up: species or system SCID mice; conditions: PDT alone (intratumoural Rose Bengal 100 μL, 0.1 mg/mL + white light 3 min); 5 days after treatment
Protocol: All animals employed in this study were treated humanely and in accordance with licenced procedures under the UK Animals (Scientific Procedures) Act 1986. Mia-PaCa 2 xenograft tumours were established as described above. Once the tumours had reached an average volume of 254±17 mm^3 the mice were randomly separated into 4 groups (n=5). Group 1 involved untreated animals, group 2 the PDT only group, Group 3 the 1-CaO2 NPs only group and group 4 the PDT+1-CaO2 NPs group. For group 2, mice received an intratumoural injection (100 μL) of Rose Bengal (0.1 mg/mL) in a PBS solvent and the tumour was then exposed to a LED emitting white light for 3 min (0.05 J/cm^2). Group 3 received a tail vein injection (100 μL) of 1-CaO2 NPs in a PBS vehicle (2 mg/mL) while group 4 also received a tail vein injection (100 μL) of 1-CaO2 NPs in a PBS vehicle (2 mg/mL) in addition to an intratumoural injection (100 μL) of Rose Bengal (0.1 mg/mL) and light exposure as described for group 2. The tumour volume was measured daily over the course of 6 days using callipers.

With O=C([O-])c1c(Cl)c(Cl)c(Cl)c(Cl)c1-c1c2cc(I)c(=O)c(I)c-2oc2c(I)c([O-])c(I)cc12.[Na+].[Na+] [Rose Bengal] the reduction in viability [1] was 10.8% and the “difference in tumour volume relative to untreated control animals” value [2] was “no significant difference”.
